Test results taken from patent US20230202997A1, “CHROMANOL, QUINONE OR HYDROQUINONE COMPOUNDS FOR TREATMENT OF SEPSIS” (Sulfateq B.V., priority 2020, published 2023).

Experiments:
[1] = tested on: HUVEC; assay: LPS-induced mitochondrial oxidative stress in HUVEC (MitoSOX); assay type: cell-based, Human; settings: SUL-138 added one hour prior to LPS
Procedure: Human Umbilical Vein Endothelial cells (HUVEC) were obtained from the RuG/UMCG Endothelial Cell Facility. Primary isolates of umbilical cords were mixed and subsequently cultured on HUVEC culture medium, consisted of RPMI 1640 (Lonza, art.nr. BE12-115F) supplemented with 20% heat-inactivated fetal calf serum (ThermoFisher Scientific, art.nr. 10082147), 2 mM 1-glutamine (Life Technologies art.nr. 25030), 5 U/ml heparin (Leo Pharmaceutical Products), 1% Penicillin/Streptomycin (Sigma-Aldrich art.nr. P4333), and 50 μg/ml EC growth factor supplement from (Sigma-Aldrich, art.nr. E2759).
Primary HUVECs were cultured in 75-cm2 tissue culture flasks (Corning, art.nr. 430720U) at 37° C. under 5% CO2/95% air. HUVECs were used for experiments up to passage 8. Experiments were performed in 6-well (Corning art.nr. 3506) or 96-well culture plates (Corning, art.nr. 3596), at 80% confluency. Cells were stimulated with LPS E. coli 0111:B4 (Sigma-Aldrich, art.nr. L2630) in different concentrations. Cells were detached with trypsin (Sigma-Aldrich, art.nr. 25300054). All compounds were dissolved in Hanks Balanced Salt Solution (Lonza, art.nr. 10-527F). […]
Cells and mitochondria were incubated and measured according to manufacturer's protocol in the Synergy H4 micro plate reader (Bio-Tek) at an excitation/emission rate of 548/574 nm.

[2] = tested on: CLP-induced sepsis; assay: Cecal ligation and puncture (CLP) sepsis model, xyphoid temperature; assay type: in vivo; settings: CLP mice; SUL-138 5 mg/kg s.c. 2 hours before and 8 hours after surgery; 24 hr after procedure
Procedure: Male C57/BL6J mice were housed at room temperature at a light-dark cycle of 12:12 hour. Animals were fed ad libitum using standard animal lab chow and they had free access to drinking water at all times.
To induce sepsis, the standard cecal ligation and puncture (CLP) model was used. Animals were anesthetized by subcutaneous injection of xylazine/ketamine (100/10 mg/kg), followed by administration of buprenorphine (0.1 mg/kg) as analgesic. After confirmation of anesthesia by lack of response to paw pinch and eye reflex, the abdomen was shaved, cleaned, and de-germed using a povidone-iodine solution before a 1-cm midline incision was made. The cecum was ligated with a 6-0 suture at half the distance between distal pole and the base of the cecum and punctured once with a 21-Gauge needle (‘through-and-through’ from mesenteric toward anti-mesenteric direction) which is an accepted model for ‘mid-grade’ sepsis. A small amount of stool (2-3 mm) was then extruded to ensure wound patency. The cecum was repositioned, thereby taking care not to spill fecal material on the wound edges, followed by closure of the abdomen by running sutures to the abdominal musculature and short interrupted sutures to the skin. Next, 1 ml of saline (warmed, 0.9% NaCl s.c.) was administered to compensate for the expected relative volume depletion due to the onset of sepsis.
Mice recovered at 26-28° C. […]

[3] = tested on: NO production in HUVEC; assay: Endothelial NO production (nitrate in conditioned medium), basal and after LPS; assay type: cell-based, Human; settings: 10 μM pre-treatment, LPS 100 ng/ml for 24 hours
Procedure: Human Umbilical Cord Endothelial Cells (HUVEC, Lonza CC-2519) were maintained on 1% gelatin-coated culture flasks in RPMI1640 medium containing 20% fetal bovine serum, 2 mM Glutamine (Sigma-Aldrich), 1% Penicillin-Streptomycin solution (Sigma-Aldrich) and 50 μg/ml Bovine Pituitary Extract (Invitrogen). HUVEC were passaged by trypsinization when the cultures reach a confluency of 70%. For all experiments, HUVEC were seeded at 0.6·10^5 cells/cm^2 and allowed to adhere for 24 hours.
Cellular production of NO was approximated by measuring nitrate concentrations in culture media using the Measure-IT™ High-Sensitivity Nitrite Assay Kit (#M36051, ThermoFisher) according to manufacturer's instructions. […] Therefore, nitrate concentrations in conditioned media are a good approximate to assess cellular NO production. 50 μl conditioned medium derived from a single 96-wells plate well was used per assay and normalized against protein concentration. All experiments were performed in quadruplicate.
Endotoxins suppress endothelial NO production by limiting the activity of eNOS. HUVEC were pre-treated with vehicle (DMSO), BN-80933, SUL-138, or SUL-150 or (all 10 μM) prior to endotoxin (LPS 100 ng/ml) exposure for 24 hours. The nitrate levels in the conditioned medium from endothelial cells exposed to LPS averaged at 160 pmol/mg protein (˜33% reduction versus non LPS exposed HUVEC, p=0.002), which was lower than basal control levels. BN-80933 further suppressed the nitrate levels in the conditioned medium (FIG. 7A) to an average of 90 pmol/mg protein (p=0.008).

**Q.** How did the “LPS induced mitochondrial oxidative stress (MitoSOX)” value [1] turn out when `Cc1c(C)c2c(c(C)c1O)CC[C@@](C)(C(=O)N1CCN(CCO)CC1)O2` [SUL-138, (S)-(6-hydroxy-2,5,7,8-tetramethylchroman-2-yl)(4-(2-hydroxyethyl)piperazin-1-yl)methanone] was run?
**A.** Its value is “reduces LPS induced mitochondrial oxidative stress”.

**Q.** And the xiphoid temperature [2]?
**A.** Its xiphoid temperature is “restored after 24 hours”.

**Q.** And the “nitrate levels in the conditioned medium after LPS” value [3]?
**A.** Its value is “mitigated the LPS-induced reduction in nitrate levels and their levels did not change from basal nitrate level”.
